According to PMC8509773, “3-Pyridinylidene Derivatives of Chemically Modified Lupane and Ursane Triterpenes as Promising Anticancer Agents by Targeting Apoptosis” (International Journal of Molecular Sciences, 2021):

Legend:
Assay in all cases: NCI-60 SRB screening (one-dose and five-dose)
Assay type in all cases: cell-based, human
NCI-H322M = conditions: 10 μM, 48 h
Method: (§1) The compounds were added at a single concentration and the cell cultures were incubated for 48 h. The end point determinations were made with a protein binding dye, sulforhodamine B (SRB). […] The percentage of growth was evaluated spectrophotometrically versus controls not treated with test agents after 48-h exposure and using SRB protein assay to estimate cell viability or growth. […] Furthermore, mean graph midpoints (MG_MID) were calculated for each of the parameters, giving an average activity parameter over all cell lines for the tested compound. For the MG_MID calculation, insensitive cell lines were included with the highest concentration tested.

HOP-92 = conditions: HOP-92, 10 μM, 48 h
Method: as §1

SF-539 = conditions: SF-539, 10 μM, 48 h
Method: as §1

SF-268 = conditions: SF-268, 10 μM, 48 h
Method: as §1

PC-3 = conditions: PC-3, 10 μM, 48 h
Method: as §1

EKVX = conditions: 10 μM, 48 h
Method: as §1

CAKI-1 = conditions: CAKI-1, 10 μM, 48 h
Method: as §1

IGROV1 = conditions: IGROV1, 10 μM, 48 h
Method: as §1

MCF7 = conditions: MCF7, 10 μM, 48 h
Method: as §1

SK-MEL-2 = conditions: SK-MEL-2, 10 μM, 48 h
Method: as §1

KM-12 = conditions: KM-12, 10 μM, 48 h
Method: as §1

TK-10 = conditions: TK-10, 10 μM, 48 h
Method: as §1

COLO 205 = conditions: COLO 205, 10 μM, 48 h
Method: as §1

MDA-MB-231/ATCC = conditions: 10 μM, 48 h
Method: as §1

HCC-2998 = conditions: HCC-2998, 10 μM, 48 h
Method: as §1

SN12C = conditions: 10 μM, 48 h
Method: as §1

NCI/ADR-RES = conditions: 10 μM, 48 h
Method: as §1

786-0 = conditions: 786-0, 10 μM, 48 h
Method: as §1

CCRF-CEM = conditions: 10 μM, 48 h
Method: as §1

SW-620 = conditions: SW-620, 10 μM, 48 h
Method: as §1

UACC-62 = conditions: UACC-62, 10 μM, 48 h
Method: as §1

SR = conditions: 10 μM, 48 h
Method: as §1

OVCAR-5 = conditions: OVCAR-5, 10 μM, 48 h
Method: as §1

MDA-MB-468 = conditions: MDA-MB-468, 10 μM, 48 h
Method: as §1

OVCAR-4 = conditions: OVCAR-4, 10 μM, 48 h
Method: as §1

NCI-H23 = conditions: NCI-H23, 10 μM, 48 h
Method: as §1

HT29 = conditions: HT29, 10 μM, 48 h
Method: as §1

K-562 = conditions: K-562, 10 μM, 48 h
Method: as §1

RXF 393 = conditions: RXF 393, 10 μM, 48 h
Method: as §1

DU-145 = conditions: DU-145, 10 μM, 48 h
Method: as §1

MOLT-4 = conditions: MOLT-4, 10 μM, 48 h
Method: as §1

HL-60(TB) = conditions: 10 μM, 48 h
Method: as §1

NCI-H460 = conditions: NCI-H460, 10 μM, 48 h
Method: as §1

NCI-H226 = conditions: NCI-H226, 10 μM, 48 h
Method: as §1

HOP-62 = conditions: HOP-62, 10 μM, 48 h
Method: as §1

SK-MEL-5 = conditions: SK-MEL-5, 10 μM, 48 h
Method: as §1

SK-OV-3 = conditions: SK-OV-3, 10 μM, 48 h
Method: as §1

LOX IMVI = conditions: 10 μM, 48 h
Method: as §1

BT-549 = conditions: BT-549, 10 μM, 48 h
Method: as §1

SMILES: CC(=O)O[C@H]1CC[C@]2(C)[C@H]3CC[C@@H]4[C@H]5[C@H](C)[C@@]6(C)OC[C@]5(CC[C@@]4(C)[C@]3(C)CC[C@H]2C1(C)C)CC6C(C)=O (stereo partly drawn) [Compound 1]
- Growth Percent (NCI-H322M): 95.70%
- Growth Percent (HOP-92): 70.21%
- Growth Percent (SF-539): 82.82%
- Growth Percent (SF-268): 97.23%
- Growth Percent (PC-3): 48.79%
- Growth Percent (EKVX): 91.35%
- Growth Percent (CAKI-1): 74.02%
- Growth Percent (IGROV1): 51.77%
- Growth Percent (MCF7): 56.74%
- Growth Percent (SK-MEL-2): 92.21%
- Growth Percent (KM-12): 78.19%
- Growth Percent (TK-10): 109.75%
- Growth Percent (COLO 205): 71.47%
- Growth Percent (MDA-MB-231/ATCC): 88.35%
- Growth Percent (HCC-2998): 92.22%
- Growth Percent (SN12C): 88.79%
- Growth Percent (NCI/ADR-RES): 96.25%
- Growth Percent (786-0): 97.17%
- Growth Percent (CCRF-CEM): 64.97%
- Growth Percent (SW-620): 68.02%
- Growth Percent (UACC-62): 49.11%
- Growth Percent (SR): 62.46%
- Growth Percent (OVCAR-5): 97.46%
- Growth Percent (MDA-MB-468): 57.26%
- Growth Percent (OVCAR-4): 75.77%
- Growth Percent (NCI-H23): 84.77%
- Growth Percent (HT29): 80.13%
- Growth Percent (K-562): 39.40%
- Growth Percent (RXF 393): 89.49%
- Growth Percent (DU-145): 99.41%
- Growth Percent (MOLT-4): 42.52%
- Growth Percent (HL-60(TB)): 39.32%
- Growth Percent (NCI-H460): 84.90%
- Growth Percent (NCI-H226): 91.65%
- Growth Percent (HOP-62): 100.79%
- Growth Percent (SK-MEL-5): 47.27%
- Growth Percent (SK-OV-3): 98.97%
- Growth Percent (LOX IMVI): 58.17%
- Growth Percent (BT-549): 96.17%
